# Assay results: PubChem BioAssay (NCI)
#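 Cells were grown in 96-well plates and exposed to each compound for 48 hours at five concentrations; endpoints were interpolated linearly between bracketing concentrations, or set to the highest concentration if not reached. At the TGI there is no net growth.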
# What was measured:
# Assay in all cases: DTP human tumour cell line panel, 48 h
# SNB-78 CNS = tested on: SNB-78 CNS
# RXF 393 renal = tested on: RXF 393 renal
# SNB-75 CNS = tested on: SNB-75 CNS
# CAKI-1 renal = tested on: CAKI-1 renal
# SF-295 CNS = tested on: SF-295 CNS
# MALME-3M melanoma = tested on: MALME-3M melanoma
# DLD-1 colon = tested on: DLD-1 colon
# XF 498 CNS = tested on: XF 498 CNS
# UO-31 renal = tested on: UO-31 renal
# LOX IMVI melanoma = tested on: LOX IMVI melanoma
# BT-549 breast = tested on: BT-549 breast
# MDA-N = tested on: MDA-N
Compound,TGI (SNB-78 CNS),TGI (RXF 393 renal),TGI (SNB-75 CNS),TGI (CAKI-1 renal),TGI (SF-295 CNS),TGI (MALME-3M melanoma),TGI (DLD-1 colon),TGI (XF 498 CNS),TGI (UO-31 renal),TGI (LOX IMVI melanoma),TGI (BT-549 breast),TGI (MDA-N)
NC(CNc1ccc(O)cc1)C(=O)O (stereo unspecified),> 100 µM,> 100 µM,> 100 µM,> 100 µM,> 100 µM,> 100 µM,> 100 µM,29.1 µM,> 100 µM,> 100 µM,–,–
Cc1oc2c(C)c3oc(=O)cc(C)c3cc2c1CN,> 100 µM,> 100 µM,> 100 µM,–,> 100 µM,86 µM,> 100 µM,73.8 µM,> 100 µM,41.9 µM,–,–
Cc1ccc(C2(c3ccc(C)c(O)c3C)CCN(C)CC2)c(C)c1O,–,> 100 µM,> 100 µM,> 100 µM,> 100 µM,> 100 µM,–,–,> 100 µM,> 100 µM,> 100 µM,> 100 µM
CN1N(c2ccccc2)C(=O)C2=NC=C(C#N)C(=N)C21C (stereo unspecified),–,> 100 µM,> 100 µM,> 100 µM,> 100 µM,> 100 µM,–,–,> 100 µM,> 100 µM,> 100 µM,> 100 µM
CC12CCC(C1)C(C)(C)C2OC(=O)c1ccccc1C(=O)O (stereo unspecified),–,> 100 µM,> 100 µM,> 100 µM,> 100 µM,> 100 µM,–,–,> 100 µM,> 100 µM,> 100 µM,> 100 µM
CCOC(=O)c1ccc(NC(NC(=O)CC)(C(F)(F)F)C(F)(F)F)cc1,–,> 100 µM,> 100 µM,> 100 µM,> 100 µM,> 100 µM,–,–,> 100 µM,> 100 µM,> 100 µM,> 100 µM
CN1CCN(c2c(O)c3c(c(O)c2Cl)C(=O)C=CC3=O)CC1,–,0.602 µM,3.56 µM,1.56 µM,3.22 µM,0.448 µM,–,–,1.22 µM,1.66 µM,1.27 µM,1.2 µM
COc1cc([C@@H]2c3cc4c(cc3[C@@H](Nc3ccc(NC(=O)c5cc(NC(=O)c6cc([N+](=O)[O-])cn6C)cn5C)cc3)[C@H]3COC(=O)[C@H]23)OCO4)cc(OC)c1O,–,> 62.3 µM,37 µM,> 28.5 µM,> 100 µM,> 100 µM,–,–,> 53 µM,> 44.1 µM,> 100 µM,> 100 µM
Cc1nc(N)nc(N)c1N1CCN(Cc2ccccc2)CC1,–,> 100 µM,> 100 µM,> 100 µM,> 100 µM,> 69 µM,–,–,> 100 µM,> 100 µM,> 100 µM,> 100 µM
Cc1nc2ccccc2cc1C[N+]12CN3CN(CN(C3)C1)C2,–,40.4 µM,35.6 µM,59.8 µM,54.6 µM,32 µM,–,–,57.4 µM,32.8 µM,40 µM,65.6 µM
Nc1ccc(-c2nc3cc(F)ccc3s2)cc1,–,> 100 µM,50.7 µM,> 100 µM,> 85.7 µM,> 100 µM,–,–,> 100 µM,> 100 µM,> 100 µM,> 100 µM
Cc1ccc(Nc2nc(NS(=O)(=O)c3cc(C)c(Cl)cc3S)n[nH]2)cc1,–,> 100 µM,> 100 µM,> 100 µM,> 100 µM,> 100 µM,–,–,> 100 µM,> 100 µM,> 100 µM,> 100 µM
C/C(=N\NC(=O)N/N=C(\C)c1ccccn1)c1ccccn1,–,> 100 µM,> 100 µM,> 100 µM,> 100 µM,> 100 µM,–,–,> 100 µM,> 100 µM,18.2 µM,> 100 µM
CC(C)(C)c1cc(C2NC(=O)NC2=O)cc(C(C)(C)C)c1O (stereo unspecified),–,95.7 µM,84.4 µM,> 100 µM,> 100 µM,> 100 µM,–,–,> 100 µM,> 100 µM,> 100 µM,> 100 µM
CC(C)(CN1CCCCC1)C(=O)/C=C/c1c(Cl)cccc1Cl,–,2.39 µM,2.38 µM,2.78 µM,7.05 µM,2.16 µM,–,–,2.27 µM,2.68 µM,4.06 µM,2.38 µM
CCCN(CCC)c1c([N+](=O)[O-])cc(C(=O)N(C)C)cc1[N+](=O)[O-],> 100 µM,–,31.5 µM,> 100 µM,> 100 µM,> 100 µM,> 100 µM,> 100 µM,> 100 µM,–,–,–

Compound,TGI (SNB-78 CNS),TGI (RXF 393 renal),TGI (SNB-75 CNS),TGI (CAKI-1 renal),TGI (SF-295 CNS),TGI (MALME-3M melanoma),TGI (DLD-1 colon),TGI (XF 498 CNS),TGI (UO-31 renal),TGI (LOX IMVI melanoma),TGI (BT-549 breast),TGI (MDA-N)
CCOC(=O)/C=C(/C(=O)OCC)n1ccc(=O)[nH]c1=O,–,13.8 µM,29.2 µM,2.3 µM,34.7 µM,4.4 µM,–,–,27.8 µM,22.3 µM,24.9 µM,25.6 µM
COc1cnnc2c(C)c(-c3ccccc3)nn12,–,> 100 µM,> 100 µM,> 100 µM,> 100 µM,> 100 µM,–,–,> 100 µM,> 100 µM,> 100 µM,> 100 µM
O=C(CC(=O)Nc1ccccc1Cl)NNC(Sc1ccccc1)c1cc(N=Nc2ccc(Br)cc2)ccc1O (stereo unspecified),–,5.82 µM,> 10 µM,7.19 µM,8.39 µM,8.73 µM,–,–,3.96 µM,3.15 µM,5.99 µM,> 10 µM
O=C(c1ccccc1)n1[nH]c(=O)n(-c2ccc(Cl)cc2)c1=O,–,> 100 µM,> 100 µM,> 100 µM,> 100 µM,> 100 µM,–,–,> 100 µM,> 100 µM,> 100 µM,> 100 µM
CC(C)C(/C=C/c1ccccc1)=N\NC(=S)NN,–,> 100 µM,> 100 µM,> 100 µM,> 100 µM,> 100 µM,–,–,> 100 µM,> 100 µM,> 100 µM,> 31.6 µM
O=c1c(S(=O)(=O)Oc2ccccc2)coc2cc(F)ccc12,–,> 100 µM,> 100 µM,> 100 µM,> 100 µM,> 100 µM,–,–,> 100 µM,> 100 µM,> 100 µM,> 100 µM
Cc1ccsc1/C=N/Nc1ccccn1,–,> 100 µM,> 100 µM,> 100 µM,> 100 µM,> 100 µM,–,–,> 100 µM,> 100 µM,> 100 µM,> 100 µM
Cc1ccc(NC(=O)CC(=O)N2N=C(c3ccccc3)C(N=Nc3ccc(S(=O)(=O)CCOS(=O)(=O)O)cc3)C2=O)cc1 (stereo unspecified),–,> 100 µM,> 100 µM,> 100 µM,> 100 µM,> 100 µM,–,–,> 100 µM,> 100 µM,> 100 µM,> 100 µM
O=C1C(CN2CCCC2)CCCC1CN1CCCC1 (stereo unspecified),–,8.08 µM,35.6 µM,3.11 µM,> 56.4 µM,1.27 µM,–,–,2.31 µM,6.26 µM,3.62 µM,19.2 µM
CC(C)=CCC/C(C)=C/CC/C(C)=C/CSc1ccc(Cl)cc1C(=O)O,–,44.6 µM,34.3 µM,43.5 µM,31.4 µM,38.4 µM,–,–,31.4 µM,32 µM,37.5 µM,60.3 µM
CC(C)(C)OC(=O)N1C/C=C\C(=O)C2(OCCO2)c2ccccc21,–,37.8 µM,99.2 µM,> 100 µM,73.9 µM,48.1 µM,–,–,43.1 µM,32.6 µM,51.4 µM,48.3 µM
O=c1cc2cc(O)[nH]c(=O)c2c(O)[nH]1,> 100 µM,> 100 µM,> 100 µM,> 100 µM,> 100 µM,> 100 µM,> 100 µM,> 100 µM,> 100 µM,> 100 µM,–,–
Cc1ccc(Nc2ccc(Nc3ccc(C)cc3S(=O)(=O)O)c3c2C(=O)c2ccccc2C3=O)c(S(=O)(=O)O)c1,> 100 µM,> 100 µM,> 100 µM,> 100 µM,–,> 100 µM,> 100 µM,–,> 100 µM,–,–,–
CC(C)(Oc1ccc(C(=O)c2ccc(Cl)cc2)cc1Cl)C(=O)N1CCN(c2ccccc2)CC1,> 100 µM,–,–,–,> 100 µM,> 100 µM,> 100 µM,> 100 µM,> 100 µM,> 100 µM,–,–
C=C(COC(=O)C(C)C)[C@H]1Oc2ccc(C(C)=O)cc2[C@@H]1OC(=O)C(C)C,–,> 100 µM,> 100 µM,> 100 µM,> 100 µM,> 100 µM,–,–,> 100 µM,> 100 µM,> 100 µM,> 100 µM
CC(=O)OC1C(O)C(C)OC(OC(=O)C2CCC3C(C2)OC2(CC(OC(=O)/C=C/c4ccccc4)C(C)CO2)C32CO2)C1OC1OC(C)C(O)C(O)C1O (stereo unspecified),0.104 µM,0.208 µM,0.135 µM,9.74 µM,0.542 µM,0.093 µM,5.69 µM,0.126 µM,33.2 µM,0.362 µM,–,–
